The target in data set [1] is T1, Isoprenylcysteine carboxyl methyltransferase (Icmt) (Homo sapiens, UniProt O60725).
T1 construct: made in house; host or cells: Sf9 (Spodoptera frugiperda) insect cells; membrane preparation provided by Prof PJ Casey (Duke University / Duke-NUS)
Put plainly: Icmt inhibition, scintillation proximity assay with BFC and [3H]SAM. As to conditions: for IC50: read-out: IC50 Icmt. In kind it is biochemical.

Data set [2] has as its system Human hepatocellular carcinoma HepG2 cells. The data set can be described thus: Cell viability (MTS, 72 h). Type of data set: cell-based. On the procedure: Cell viability was determined from the expression:
The plot was constrained to ≧0 and ≦100%.
Human hepatocellular carcinoma HepG2 and human pancreatic cancer MIA PACA II cells were obtained from ATCC (Rockville, Md.). They were grown in DMEM (high glucose, Invitrogen) supplemented with 10% FBS, 50 μg/mL penicillin and 50 μg/mL streptomycin, 37° C., 5% CO2 until they reached 80-90% confluency, after which they were subcultured. Passage numbers were kept within 7-14 passages for both cell types.

Another data set can be described thus: physchem. As to conditions: for solubility at 24 h: 25 °C; for solubility at 24 h / solubility at 3 h / solubility: pH 7.4, aqueous buffer, kinetic from dmso stock. On the procedure:
The turbid solution was delivered to the filter plate, agitated for a specific time period and then filtered. The concentration of dissolved compound in the filtrate was determined by uv spectroscopy and referred to pre-constructed calibration curves for solubility determination.
(§1) Determination of aqueous solubility was carried out on Multiscreen® Solubility filter plates (Millipore-MSSLBPC10) from Millipore Corporation (MA, USA). The protocol (PC2445EN00, Millipore Corporation) was followed. Briefly, various concentrations of the test compound were prepared in Universal buffer (pH 7.4)/acetonitrile/DMSO. The UV absorbances of these solutions were obtained at a pre-determined wavelength and used to construct a calibration curve for the test compound. Next, a stock solution of the test compound in DMSO was prepared at a known concentration, diluted with Universal buffer (pH 7.4), dispensed into wells in the Multiscreen Solubility filter plate, and agitated for a period of time. The suspension is then filtered, the filtrate collected and diluted with acetonitrile to give the same solvent composition used to prepare the calibration solutions. The absorbance of the diluted filtrate was then read at the predetermined wavelength and the concentration of the filtrate (taken here to be equivalent to the solubility of the test compound) was determined from the calibration curve.
as §1, with “24 hours at room temperature (25 deg C.). […]” for “a period of time.”, “was” for “is then”, “was” for “was then”, “(equivalent” for “(taken here to be equivalent”, “curve. […] LCMS determinations were made on an Agilent 1200 Series HPLC linked to a AB Sciex Instruments 3200 Q TRAP LC/MS/MS. Separations were carried out on a Phenomenex Luna column [3u, C18(2), 100A, 5×4.6 mm]. […] Quantification was based on the ratio of peak areas of the daughter ion and the mother ion (M+H), normalized against the same ratio obtained for the internal standard. The solubility determinations were carried out in triplicates or more from two different stock solutions.” for “curve.”

[3] abbreviates: Table 3, mean of two or more determinations (SD).
Setting [4] is: HepG2, Table 6, mean (SD), read-out: IC50 (μM) HepG2.
[5] abbreviates: HepG2, further testing, 72 h, mean (SD), read-out: IC50 HepG2.
Where [6] appears, read: HepG2, read-out: in vitro IC50 (horizontal line in FIGS. 14 and 15), cell line not stated.

Molecules are shown by their SMILES. Converted amounts (≈) assume the structure as drawn. “And” between values parts separate entries of the source, which are not always exact repeats. Equal entries are not always repeated. Where two headings read alike, the source gives them in different places.

T1 sequence (O60725 whole entry, species assumed): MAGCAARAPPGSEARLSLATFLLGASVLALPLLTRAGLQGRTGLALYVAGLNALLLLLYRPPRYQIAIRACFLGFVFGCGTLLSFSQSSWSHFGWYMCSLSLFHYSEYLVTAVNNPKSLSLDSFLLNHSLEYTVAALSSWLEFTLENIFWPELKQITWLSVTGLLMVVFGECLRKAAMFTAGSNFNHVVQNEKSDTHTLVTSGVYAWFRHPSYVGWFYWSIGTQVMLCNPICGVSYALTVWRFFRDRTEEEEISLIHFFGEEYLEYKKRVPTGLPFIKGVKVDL

As a reminder, the IC50 is the point on the concentration scale where inhibition reaches its midpoint. What is called solubility is how much of the substance goes into solution per volume. A lower solubility goes with a poorly soluble substance. Take `CCCCCCCCn1cc(CC(N)=O)c2cc(-c3cccc(C)c3)ccc21` [Cysmethynil, 2-[5-(3-methylphenyl)-1-octyl-1H-indolo-3-yl]acetamide, reference compound]: the 50% inhibitory concentration (IC50) came out at 1800 nM in data set [1] (setting [3]); 1900 nM in data set [1] (further testing, mean (SD)); 21.8 µM in data set [2] (setting [4]); 21.8 µM in data set [2] (setting [5]); 22 µM in data set [2] (setting [6]). The molecule also registered a solubility at 24 h in the data set “physchem” of under 1 µM. For the same molecule, the solubility at 3 h in “physchem” was under 1 µM.
Consider `CCCCCCCCn1cc(CN(CC)CC)c2cc(-c3cnc(N)nc3)ccc21` [Compound 8-12, 5-(3-Diethylaminomethyl-1-octyl-1H-indol-5-yl)-pyrimidin-2-ylamine], for which the IC50 worked out at 780 nM in data set [1] (setting [3]); 860 nM in data set [1] (further testing, mean (SD)); 1.65 µM in data set [2] (setting [4]); 1.65 µM in data set [2] (setting [5]); 1.7 µM in data set [2] (setting [6]). Moreover, the solubility at 24 h in the data set “physchem” was 156 µM and 64 µg/mL. In addition, in the data set “physchem” (24 h, pH 7.4), the “Aqueous Solubility (pH 7.4) 24 hours” value was 155.9 (6.4) μM. The molecule further returned a solubility in “physchem” of about 65 µg/mL (≈ 159 µM). For the same molecule, in “physchem”, the solubility at 3 h is 166 µM (≈ 67.7 µg/mL).
Take `CCCCCCCCn1c2c(c3cc(-c4cnc(N)nc4)ccc31)CN(C)CC2` [Compound 305, 8-(2′-amino-pyrimidin-5′-yl)-2-methyl-5-n-octyl-1,2,3,4-tetrahydropyrido[4,3-b]indole]: the 50% inhibitory concentration (IC50) in data set [1] (setting [3]) came to 3300 nM. In addition, the “fold higher IC50 Icmt than cysmethynil” value in data set [1] (ratio of IC50 Icmt) is “about 2”. Also, the IC50 in data set [2] (setting [5]) came out at 1.73 µM. In “physchem”, this molecule had a solubility at 24 h of 40.6 µM (≈ 15.9 µg/mL), a solubility of 20 µg/mL (≈ 51.1 µM) and a solubility at 3 h of 49.5 µM (≈ 19.4 µg/mL). In the data set “physchem” (24 h, pH 7.4), the “Solubility (μM)” value is listed as 40.6 (1.75) μM.

Source of the values: patent US9422238B2, “ICMT inhibitors” (National University of Singapore, priority 2012, dated 2016).
